In paper PMC9649653, “Biochemical and structural basis for differential inhibitor sensitivity of EGFR with distinct exon 19 mutations” (Nature Communications, 2022):
Several values for one entry are separate records, joined by “and”; a condition that tells them apart may be missing. Equal entries are not always repeated. Where two headings read alike, the source gives them in different places.

Tests used:
wild type EGFR TKD = molecular target: T1, wild type EGFR TKD (Homo sapiens, UniProt P00533); test: Michaelis-Menten kinetics (KM,ATP, KM,pept); format: biochemical
T1 construct: hexa-histidine (6x His) (N); made in house; host or cells: Spodoptera frugiperda Sf9 (baculovirus, pFastBac1)

EGFR TKD ΔL747-A750InsP = molecular target: T2, EGFR TKD ΔL747-A750InsP (Homo sapiens, UniProt P00533, A750P/DEL747-749); test: Michaelis-Menten kinetics (KM,ATP, KM,pept); format: biochemical
T2 construct: 6x His (N); made in house; host or cells: Spodoptera frugiperda Sf9 (baculovirus)

EGFR TKD L747P = molecular target: T3, EGFR TKD L747P (Homo sapiens, UniProt P00533, L747P); test: Michaelis-Menten kinetics (KM,ATP, KM,pept); format: biochemical
T3 construct: 6x His (N); made in house; host or cells: Spodoptera frugiperda Sf9 (baculovirus)

EGFR TKD ΔE746-A750 = molecular target: T4, EGFR TKD ΔE746-A750 (Homo sapiens, UniProt P00533, DEL746-750); test: Michaelis-Menten kinetics (KM,ATP, KM,pept); format: biochemical; conditions: read-out: Best fit KM,ATP; individual experiments (Fig. 3b data)
T4 construct: 6x His (N); made in house; host or cells: Spodoptera frugiperda Sf9 (baculovirus)
Method: (§1) Reactions were carried out in a 384-well assay plate format at 30 °C and initiated with the addition of AQpeptide after 5 min incubation of EGFR with ATP. Progress curves of phosphorylated peptide accumulation were monitored using a BioTek Synergy microplate reader with a fluorescence intensity module excitation and emission wavelength at 360 nm and 480 nm, respectively.
(§2) Initial velocities (νo) at different ATP concentrations were determined by inspecting progress curves during the steady state phase. The νo values were plotted against ATP concentration, and the curves fit to the Michaelis-Menten equation to estimate KM, ATP as well as Vmax using GraphPad Prism.

EGFR TKD ΔE746-T751InsA = molecular target: T5, EGFR TKD ΔE746-T751InsA (Homo sapiens, UniProt P00533, DEL746-750/T751A); test: Michaelis-Menten kinetics (KM,ATP, KM,pept); format: biochemical
T5 construct: 6x His (N); made in house; host or cells: Spodoptera frugiperda Sf9 (baculovirus)
Method: as §1, §2

EGFR TKD ΔL747-T751InsP = molecular target: T6, EGFR TKD ΔL747-T751InsP (Homo sapiens, UniProt P00533, DEL747-750/T751P); test: Michaelis-Menten kinetics (KM,ATP, KM,pept); format: biochemical; conditions: read-out: Best fit KM,ATP; individual experiments (Fig. 3b data)
T6 construct: 6x His (N); made in house; host or cells: Spodoptera frugiperda Sf9 (baculovirus)
Method: as §1, §2

EGFR TKD ΔL747-P753InsS = molecular target: T7, EGFR TKD ΔL747-P753InsS (Homo sapiens, UniProt P00533, DEL747-752/P753S); test: Michaelis-Menten kinetics (KM,ATP, KM,pept); format: biochemical
T7 construct: 6x His (N); made in house; host or cells: Spodoptera frugiperda Sf9 (baculovirus)

EGFR TKD ΔS752-I759 = molecular target: T8, EGFR TKD ΔS752-I759 (Homo sapiens, UniProt P00533, DEL752-759); test: Michaelis-Menten kinetics (KM,ATP, KM,pept); format: biochemical
T8 construct: 6x His (N); made in house; host or cells: Spodoptera frugiperda Sf9 (baculovirus)

EGFR TKD L858R = molecular target: T9, EGFR TKD L858R (Homo sapiens, UniProt P00533, L858R); test: Michaelis-Menten kinetics (KM,ATP, KM,pept); format: biochemical
T9 construct: 6x His (N); made in house; host or cells: Spodoptera frugiperda Sf9 (baculovirus)

EGFR TKD L858R/T790M = molecular target: T10, EGFR TKD L858R/T790M (Homo sapiens, UniProt P00533, L858R/T790M); test: Michaelis-Menten kinetics (KM,ATP, KM,pept); format: biochemical; conditions: read-out: Best fit KM,ATP; individual experiments (Fig. 3b data)
T10 construct: 6x His (N); made in house; host or cells: Spodoptera frugiperda Sf9 (baculovirus)
Method: as §1, §2

EGFR TKD ΔL747-E749 = EGFR TKD ΔL747-E749 (Homo sapiens, UniProt P00533, DEL747-749); test: Michaelis-Menten kinetics (KM,ATP)
Method: as §1, §2

[1] = read-out: Best fit KM,ATP, individual experiments (Fig. 3b data)
[2] = read-out: KM, ATP, 20 μM peptide, mean ± SD

Nc1ncnc2c1ncn2[C@@H]1O[C@H](COP(=O)(O)OP(=O)(O)OP(=O)(O)O)[C@@H](O)[C@H]1O [ATP]
Km (wild type EGFR TKD; [1]): 9.32 µM and 7.22 µM and 7.98 µM and 15.8 µM and 15.6 µM and 15 µM and 12.6 µM and 10.1 µM
Km (wild type EGFR TKD; [2]): 12 ± 3 µM
Km (EGFR TKD ΔL747-A750InsP; [1]): 23.6 µM and 15.4 µM and 18.7 µM and 31.1 µM and 32.5 µM and 29.2 µM and 22.7 µM and 20.1 µM and 16.8 µM
Km (EGFR TKD ΔL747-A750InsP; [2]): 23 ± 6 µM
KM, ATP for L747P smaller than for ΔE746-A750 (EGFR TKD L747P): 7.5 fold
Km (EGFR TKD L747P; [1]): 16.8 µM and 14.6 µM and 12.5 µM and 19.3 µM and 21.2 µM and 21.7 µM and 28.8 µM and 29.4 µM and 26 µM
Km (EGFR TKD L747P; [2]): 21 ± 6 µM
Km (EGFR TKD ΔE746-A750): 194 µM and 149 µM and 116 µM and 126 µM
Km (EGFR TKD ΔE746-T751InsA; [1]): 216 µM and 285 µM and 228 µM and 263 µM and 287 µM and 318 µM
Km (EGFR TKD ΔE746-T751InsA; [2]): 240 ± 59 µM
Km (EGFR TKD ΔL747-T751InsP): 93.5 µM and 183 µM and 100 µM and 217 µM and 135 µM and 204 µM and 224 µM
Km (EGFR TKD ΔL747-P753InsS; [1]): 115 µM and 93.7 µM and 90.2 µM and 86 µM and 70.3 µM and 87.6 µM and 138 µM and 132 µM and 99.9 µM
Km (EGFR TKD ΔL747-P753InsS; [2]): 101 ± 22 µM
Km (EGFR TKD ΔS752-I759; [1]): 124 µM (2×) and 122 µM and 82.8 µM (2×) and 79.2 µM and 65.9 µM and 75.6 µM and 64.3 µM
Km (EGFR TKD ΔS752-I759; [2]): 91 ± 25 µM
Km (EGFR TKD L858R; [1]): 89.3 µM and 87.4 µM and 87.6 µM and 63.1 µM and 77.3 µM and 74.5 µM and 60.1 µM and 51.1 µM
Km (EGFR TKD L858R; [2]): 74 ± 14 µM
Km (EGFR TKD L858R/T790M): 48 µM and 47.5 µM and 38.9 µM and 35.3 µM and 47.4 µM and 56.3 µM and 50.7 µM
Km (EGFR TKD ΔL747-E749; [1]): 10.3 µM and 8.84 µM and 8.25 µM and 18.4 µM and 22.3 µM and 26.3 µM and 7.28 µM and 5.87 µM and 5.78 µM
Km (EGFR TKD ΔL747-E749; [2]): 13 ± 8 µM
